How the values were obtained:
Assay type in all cases: biochemical
[1] = target: T1, HDAC3 (Homo sapiens, UniProt O15379); assay: HDAC Inhibition Screening Assay (FLUOR DE LYS Fluorimetric Drug Discovery Kit), HDAC3; details: for inhibition at 2 µM: 2 μM compound; for inhibition at 10 µM: 10 μM compound; for inhibition at 50 µM: 50 μM compound
T1 construct: purchased Enzo Life Sciences
Method: (§1) The HDAC1/HDAC2/HDAC3 in vitro activities are detected by Enzo Life Sciences' HDAC1/HDAC2/HDAC3 Fluorimetric Drug Discovery Kit. The assay is based on the FLUOR DE LYS® Substrate and FLUOR DE LYS® Developer combination. The assay procedure has two steps. First, the FLUOR DE LYS® Substrate, which comprises an acetylated lysine side chain, is incubated with HDAC1/HDAC2/HDAC3, respectively. Deacetylation of the substrate sensitizes the substrate so that, in the second step, treatment with the FLUOR DE LYS® Developer produces a fluorophore. The signals of the test compounds (Compounds 1˜83; at concentrations of 2 μM, 10 μM and 50 μM) in 96-well plates are detected at 360 nm or 485 nm excitation and 460 nm or 530 nm emission with a Molecular Devices SpectraMax i3 Imaging Cytometer. The HDAC1/HDAC2/HDAC3 activities are expressed in percentage of basal control minus baseline control.

[2] = target: T2, ATX (autotaxin) (Homo sapiens, UniProt Q13822); assay: Autotaxin Inhibition Screening Assay (choline release from LPC, LPC-CR); details: for inhibition at 4 µM: 4 μM compound; for inhibition at 20 µM: 20 μM compound; for inhibition at 50 µM: 50 μM compound
T2 construct: purchased Cayman 10803
Method: ATX (autotaxin) activity was measured by choline release from LPC in presence or absence of test compounds (Compounds 1˜83; at concentrations of 4 μM, 20 μM and 50 μM). Twenty (20) ng ATX (10803, Cayman, MI, USA) was incubated with 100 μM 14:0 LPC (855575P, Avanti, AL, USA) in a final volume of 100 μL buffer containing 50 mM Tris pH 8.0, 0.01% Triton X-100, 50 mM CaCl2, 1 unit/ml choline oxidase, 2 unit/ml horseradish peroxidase (HRP), 2 mM homovanilic acid (HVA). The relative amount of released choline was measured by HVA fluorescence in a 96-well plate. Fluorescent intensity was determined at λex/λem=320/450 nm every 60 sec for 90 min with a SpectraMax i3 (Molecular Devices, CA, USA). Data analysis was performed using GraphPad Prism (GraphPad, La Jolla CA, USA). Inhibition %=[1−(SlopeTA−SlopeBlank)/(SlopeVehicle−SlopeBlank)]×100% HDAC Inhibition Screening Assay

[3] = target: T3, HDAC1 (Homo sapiens, UniProt Q13547); assay: HDAC Inhibition Screening Assay (FLUOR DE LYS Fluorimetric Drug Discovery Kit), HDAC1; details: for inhibition at 2 µM: 2 μM compound; for inhibition at 10 µM: 10 μM compound; for inhibition at 50 µM: 50 μM compound
T3 construct: purchased Enzo Life Sciences
Method: as §1

[4] = target: T4, HDAC2 (Homo sapiens, UniProt Q92769); assay: HDAC Inhibition Screening Assay (FLUOR DE LYS Fluorimetric Drug Discovery Kit), HDAC2; details: for inhibition at 2 µM: 2 μM compound; for inhibition at 10 µM: 10 μM compound; for inhibition at 50 µM: 50 μM compound
T4 construct: purchased Enzo Life Sciences
Method: as §1

T1 sequence (O15379 whole entry): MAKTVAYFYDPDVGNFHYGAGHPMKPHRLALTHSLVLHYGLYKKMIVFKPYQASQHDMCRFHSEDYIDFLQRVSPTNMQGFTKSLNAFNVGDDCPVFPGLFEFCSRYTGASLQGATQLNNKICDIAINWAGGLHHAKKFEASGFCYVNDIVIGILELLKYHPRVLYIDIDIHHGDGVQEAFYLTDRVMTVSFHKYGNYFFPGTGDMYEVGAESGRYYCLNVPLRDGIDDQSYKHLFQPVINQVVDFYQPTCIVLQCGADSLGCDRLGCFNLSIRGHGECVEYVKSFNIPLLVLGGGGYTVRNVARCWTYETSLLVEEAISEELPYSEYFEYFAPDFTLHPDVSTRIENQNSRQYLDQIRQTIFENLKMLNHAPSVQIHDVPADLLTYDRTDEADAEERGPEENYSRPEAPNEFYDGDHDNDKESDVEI
T1 sequence (O75376 395-489 partner limits assumed): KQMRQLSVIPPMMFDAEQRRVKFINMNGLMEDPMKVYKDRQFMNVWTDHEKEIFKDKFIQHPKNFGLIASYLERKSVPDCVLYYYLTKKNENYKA
T4 sequence (Q92769 whole entry): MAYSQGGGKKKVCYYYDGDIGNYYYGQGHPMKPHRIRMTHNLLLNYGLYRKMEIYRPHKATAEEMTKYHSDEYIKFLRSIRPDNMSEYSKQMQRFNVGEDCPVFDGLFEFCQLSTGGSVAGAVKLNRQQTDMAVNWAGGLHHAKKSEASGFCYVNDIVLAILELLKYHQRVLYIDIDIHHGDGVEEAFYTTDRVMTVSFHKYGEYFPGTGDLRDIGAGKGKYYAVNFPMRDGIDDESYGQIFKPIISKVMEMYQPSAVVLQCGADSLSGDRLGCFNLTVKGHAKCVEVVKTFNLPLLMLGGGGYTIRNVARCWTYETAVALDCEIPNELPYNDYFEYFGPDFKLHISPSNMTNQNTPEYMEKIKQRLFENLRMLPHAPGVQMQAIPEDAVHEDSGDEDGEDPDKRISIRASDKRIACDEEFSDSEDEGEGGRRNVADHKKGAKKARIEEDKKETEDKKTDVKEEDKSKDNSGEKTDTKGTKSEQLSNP
T3 sequence (Q13547 whole entry): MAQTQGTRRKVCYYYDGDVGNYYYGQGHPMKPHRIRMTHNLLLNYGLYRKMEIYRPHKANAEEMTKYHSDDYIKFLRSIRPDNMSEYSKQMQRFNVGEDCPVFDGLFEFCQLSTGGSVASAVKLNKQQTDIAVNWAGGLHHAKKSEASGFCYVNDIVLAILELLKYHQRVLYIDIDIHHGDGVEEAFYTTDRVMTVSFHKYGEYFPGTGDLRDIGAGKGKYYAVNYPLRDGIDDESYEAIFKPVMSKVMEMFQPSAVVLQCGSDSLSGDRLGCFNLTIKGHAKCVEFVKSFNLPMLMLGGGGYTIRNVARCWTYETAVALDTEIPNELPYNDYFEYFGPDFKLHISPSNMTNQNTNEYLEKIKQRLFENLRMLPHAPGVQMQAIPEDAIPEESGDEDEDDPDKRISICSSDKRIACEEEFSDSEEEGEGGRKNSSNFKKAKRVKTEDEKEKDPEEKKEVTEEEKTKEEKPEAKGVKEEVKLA

inhibition at 2 µM [1]	inhibition at 10 µM [1]	inhibition at 50 µM [1]	inhibition at 4 µM [2]	inhibition at 20 µM [2]	inhibition at 50 µM [2]	inhibition at 2 µM [3]	inhibition at 10 µM [3]	inhibition at 50 µM [3]	inhibition at 2 µM [4]	inhibition at 10 µM [4]	inhibition at 50 µM [4]	SMILES
< 50%	< 50%	< 50%	< 50%	< 50%	< 50%	< 50%	< 50%	50 to 80%	< 50%	< 50%	50 to 80%	O=C(/C=C/c1ccc2c(c1)CCCC2NC(=O)c1cc(C(F)(F)F)cc(C(F)(F)F)c1)NO (stereo not drawn) [Compound 24, (E)-N-(6-(3-(hydroxyamino)-3-oxoprop-1-en-1-yl)-1,2,3,4-tetrahydronaphthalen-1-yl)-3,5-bis(trifluoromethyl)benzamide]
> 80%	> 80%	> 80%	< 50%	< 50%	< 50%	> 80%	> 80%	> 80%	> 80%	> 80%	> 80%	COc1ccc(C(=O)NC2CCc3cc(/C=C/C(=O)NO)ccc32)cc1 (stereo not drawn) [Compound 25, (E)-N-(5-(3-(hydroxyamino)-3-oxoprop-1-en-1-yl)-2,3-dihydro-1H-inden-1-yl)-4-methoxybenz amide]
> 80%	> 80%	> 80%	< 50%	< 50%	< 50%	> 80%	> 80%	> 80%	> 80%	> 80%	> 80%	CN(C)c1ccc(C(=O)NC2CCc3cc(/C=C/C(=O)NO)ccc32)cc1 (stereo not drawn) [Compound 26, (E)-4-(dimethylamino)-N-(5-(3-(hydroxyamino)-3-oxoprop-1-en-1-yl)-2,3-dihydro-1H-inden-1-yl)benzamide]
< 50%	< 50%	< 50%	< 50%	< 50%	< 50%	< 50%	< 50%	< 50%	< 50%	< 50%	< 50%	CCN(CC)c1ccc(C(=O)NC2CCc3cc(/C=C/C(=O)Nc4ccc(F)cc4N)ccc32)cc1 (stereo not drawn) [Compound 27]

The next lines start with the compound.

SMILES	inhibition at 2 µM [1]	inhibition at 10 µM [1]	inhibition at 50 µM [1]	inhibition at 4 µM [2]	inhibition at 20 µM [2]	inhibition at 50 µM [2]	inhibition at 2 µM [3]	inhibition at 10 µM [3]	inhibition at 50 µM [3]	inhibition at 2 µM [4]	inhibition at 10 µM [4]	inhibition at 50 µM [4]
O=C(CCCCC(=O)Nc1ccc2c(c1)CC/C(=C\c1cc(C(F)(F)F)cc(C(F)(F)F)c1)C2=O)NO [Compound 14, (E)-N1-(6-(3,5-bis(trifluoromethyl)benzylidene)-5-oxo-5,6,7,8-tetrahydronaphthalen-2-yl)-N6-hydroxyadipamide]	< 50%	< 50%	> 80%	> 80%	> 80%	> 80%	< 50%	50 to 80%	> 80%	< 50%	50 to 80%	> 80%
O=C(/C=C/c1ccc2c(c1)CCC2NC(=O)OCc1cc(C(F)(F)F)cc(C(F)(F)F)c1)NO (stereo not drawn) [Compound 15, 3,5-bis(trifluoromethyl)benzyl (E)-(5-(3-(hydroxyamino)-3-oxoprop-1-en-1-yl)-2,3-dihydro-1H-inden-1-yl)carbamate]	< 50%	50 to 80%	> 80%	< 50%	< 50%	< 50%	< 50%	50 to 80%	> 80%	< 50%	50 to 80%	> 80%
Cc1ccc(S(=O)(=O)NC2CCc3cc(/C=C/C(=O)NO)ccc32)cc1 (stereo not drawn) [Compound 16, (E)-N-hydroxy-3-(1-((4-methylphenyl)sulfonamido)-2,3-dihydro-1H-inden-5-yl)acrylamide]	> 80%	> 80%	> 80%	< 50%	< 50%	< 50%	> 80%	> 80%	> 80%	> 80%	> 80%	> 80%
Nc1cc(F)ccc1NC(=O)/C=C/c1ccc2c(c1)CCC2NS(=O)(=O)c1cc(C(F)(F)F)cc(C(F)(F)F)c1 (stereo not drawn) [Compound 17, (E)-N-(2-amino-4-fluorophenyl)-3-(1-((3,5-bis(trifluoromethyl)phenyl)sulfonamido)-2,3-dihydro-1H-inden-5-yl)acrylamide]	< 50%	< 50%	< 50%	< 50%	< 50%	< 50%	< 50%	< 50%	< 50%	< 50%	< 50%	< 50%
O=C(/C=C/c1ccc2c(c1)CCC2NS(=O)(=O)c1cc(C(F)(F)F)cc(C(F)(F)F)c1)NO (stereo not drawn) [Compound 18]	< 50%	50 to 80%	> 80%	< 50%	< 50%	< 50%	< 50%	50 to 80%	> 80%	50 to 80%	50 to 80%	> 80%
COc1ccc(S(=O)(=O)NC2CCc3cc(/C=C/C(=O)Nc4ccc(F)cc4N)ccc32)cc1 (stereo not drawn) [Compound 19, (E)-N-(2-amino-4-fluorophenyl)-3-(1-((4-methoxyphenyl)sulfonamido)-2,3-dihydro-1H-inden-5-yl)acrylamide]	< 50%	< 50%	< 50%	< 50%	< 50%	< 50%	< 50%	< 50%	< 50%	< 50%	< 50%	< 50%
COc1ccc(S(=O)(=O)NC2CCc3cc(/C=C/C(=O)NO)ccc32)cc1 (stereo not drawn) [Compound 20, (E)-N-hydroxy-3-(1-((4-methoxyphenyl)sulfonamido)-2,3-dihydro-1H-inden-5-yl)acrylamide]	> 80%	> 80%	> 80%	< 50%	< 50%	< 50%	50 to 80%	> 80%	> 80%	50 to 80%	> 80%	> 80%
Nc1cc(F)ccc1NC(=O)/C=C/c1ccc2c(c1)CCC2NC(=O)c1cc(C(F)(F)F)cc(C(F)(F)F)c1 (stereo not drawn) [Compound 21, (E)-N-(5-(3-((2-amino-4-fluorophenyl)amino)-3-oxoprop-1-en-1-yl)-2,3-dihydro-1H-inden-1-yl)-3,5-bis(trifluoromethyl)benzamide]	< 50%	< 50%	< 50%	< 50%	< 50%	< 50%	< 50%	< 50%	< 50%	< 50%	< 50%	< 50%
O=C(/C=C/c1ccc2c(c1)CCC2NC(=O)c1cc(C(F)(F)F)cc(C(F)(F)F)c1)NO (stereo not drawn) [Compound 22, (E)-N-(5-(3-(hydroxyamino)-3-oxoprop-1-en-1-yl)-2,3-dihydro-1H-inden-1-yl)-3,5-bis(trifluoromethyl)benzamide]	50 to 80%	> 80%	> 80%	< 50%	< 50%	< 50%	50 to 80%	> 80%	> 80%	50 to 80%	> 80%	> 80%
Nc1cc(F)ccc1NC(=O)/C=C/c1ccc2c(c1)CCCC2NC(=O)c1cc(C(F)(F)F)cc(C(F)(F)F)c1 (stereo not drawn) [Compound 23]	< 50%	< 50%	< 50%	< 50%	< 50%	< 50%	< 50%	< 50%	< 50%	< 50%	< 50%	< 50%
